Assay results from patent publication US6855710B2, “Substituted indolines with an inhibitory effect on various kinases and complexes of CDKs” (Boehringer Ingelheim Pharma KG, priority 1998, dated 2005).

| melting point | Structure (SMILES) |
| --- | --- |
| 206 to 207 °C | CCOC(=O)CN(C)S(=O)(=O)c1ccc(N/C(=C2\C(=O)Nc3ccc([N+](=O)[O-])cc32)c2ccccc2)cc1 [Example 413, (Z)-3-{1-[4-(N-ethoxycarbonylmethyl-N-methyl-aminosulphonyl)-phenylamino]-1-phenyl-methylidene}-5-nitro-2-indolinone] |
| 259 to 260 °C | CN(CC(=O)O)S(=O)(=O)c1ccc(N/C(=C2\C(=O)Nc3ccc([N+](=O)[O-])cc32)c2ccccc2)cc1 [Example 414, (Z)-3-{1-[4-(N-carboxymethyl-N-methyl-aminosulphonyl)-phenylamino]-1-phenyl-methylidene}-5-nitro-2-indolinone] |
| 277 to 278 °C | CN(C)C(=O)CN(C)S(=O)(=O)c1ccc(N/C(=C2\C(=O)Nc3ccc([N+](=O)[O-])cc32)c2ccccc2)cc1 [Example 415, (Z)-3-{1-[4-(N-dimethylaminocarbonylmethyl-N-methyl-aminosulphonyl)-phenylamino]-1-phenyl-methylidene}-5-nitro-2-indolinone] |
| 167 °C | CS(=O)(=O)N(CC(N)=O)c1cccc(N/C(=C2\C(=O)Nc3ccccc32)c2ccc(CN)cc2)c1 [Example 416, (Z)-3-{1-[3-(N-aminocarbonylmethyl-N-methylsulphonyl-amino)-phenylamino]-1-(4-aminomethyl-phenyl)-methylidene}-2-indolinone] |
| 215 °C | CC(=O)NCc1ccc(/C(Nc2cccc(N(CC(N)=O)S(C)(=O)=O)c2)=C2/C(=O)Nc3ccccc32)cc1 [Example 417, (Z)-3-{1-[3-(N-aminocarbonylmethyl-N-methylsulphonyl-amino)-phenylamino]-1-(4-acetylaminomethyl-phenyl)-methylidene}-2-indolinone] |
| 164 °C | CNC(=O)CN(c1cccc(N/C(=C2\C(=O)Nc3ccccc32)c2ccc(CN)cc2)c1)S(C)(=O)=O [Example 418, (Z)-3-{1-[3-(N-methylaminocarbonylmethyl-N-methylsulphonyl-amino)-phenylamino]-1-(4-aminomethyl-phenyl)-methylidene}-2-indolinone] |
| 242 °C | CNC(=O)CN(c1cccc(N/C(=C2\C(=O)Nc3ccccc32)c2ccc(CNC(C)=O)cc2)c1)S(C)(=O)=O [Example 419, (Z)-3-{1-[3-(N-methylaminocarbonylmethyl-N-methylsulphonyl-amino)-phenylamino]-1-(4-acetylaminomethyl-phenyl)-methylidene}-2-indolinone] |
| 220 °C | CN(C)C(=O)CN(c1cccc(N/C(=C2\C(=O)Nc3ccccc32)c2ccc(CN)cc2)c1)S(C)(=O)=O [Example 420, (Z)-3-{1-[3-(N-dimethylaminocarbonylmethyl-N-methylsulphonyl-amino)-phenylamino]-1-(4-aminomethyl-phenyl)-methylidene}-2-indolinone] |
| 194 °C | CC(=O)NCc1ccc(/C(Nc2cccc(N(CC(=O)N(C)C)S(C)(=O)=O)c2)=C2/C(=O)Nc3ccccc32)cc1 [Example 421, (Z)-3-{1-[3-(N-dimethylaminocarbonylmethyl-N-methylsulphonyl-amino)-phenylamino]-1-(4-acetylaminomethyl-phenyl)-methylidene}-2-indolinone] |
| 161 °C | CN(C)CCN(c1cccc(N/C(=C2\C(=O)Nc3ccccc32)c2ccc(CN)cc2)c1)S(C)(=O)=O [Example 422, (Z)-3-{1-[3-(N-(2-dimethylaminoethyl)-N-methylsulphonyl-amino)-phenylamino]-1-(4-aminomethyl-phenyl)-methylidene}-2-indolinone] |
| 180 °C | CC(=O)NCc1ccc(/C(Nc2cccc(N(CCN(C)C)S(C)(=O)=O)c2)=C2/C(=O)Nc3ccccc32)cc1 [Example 423, (Z)-3-{1-[3-(N-(2-dimethylaminoethyl)-N-methylsulphonyl-amino)-phenylamino]-1-(4-acetylaminomethyl-phenyl)-methylidene}-2-indolinone] |
| 197 °C | CN(C)CCCN(c1cccc(N/C(=C2\C(=O)Nc3ccccc32)c2ccc(CN)cc2)c1)S(C)(=O)=O [Example 424, (Z)-3-{1-[3-(N-(3-dimethylaminopropyl)-N-methylsulphonyl-amino)-phenylamino]-1-(4-aminomethyl-phenyl)-methylidene}-2-indolinone] |
| 208 °C | CC(=O)NCc1ccc(/C(Nc2cccc(N(CCCN(C)C)S(C)(=O)=O)c2)=C2/C(=O)Nc3ccccc32)cc1 [Example 425, (Z)-3-{1-[3-(N-(3-dimethylaminopropyl)-N-methylsulphonyl-amino)-phenylamino]-1-(4-acetylaminomethyl-phenyl)-methylidene}-2-indolinone] |
| 203 to 205 °C | CN(C)CCN(c1ccc(N/C(=C2\C(=O)Nc3ccccc32)c2ccc(CN)cc2)cc1)S(C)(=O)=O [Example 426, (Z)-3-{1-[4-(N-(2-dimethylaminoethyl)-N-methylsulphonyl-amino)-phenylamino]-1-(4-aminomethyl-phenyl)-methylidene}-2-indolinone] |
| 225 to 227 °C | CC(=O)NCc1ccc(/C(Nc2ccc(N(CCN(C)C)S(C)(=O)=O)cc2)=C2/C(=O)Nc3ccccc32)cc1 [Example 427, (Z)-3-{1-[4-(N-(2-dimethylaminoethyl)-N-methylsulphonyl-amino)-phenylamino]-1-(4-acetylaminomethyl-phenyl)-methylidene}-2-indolinone] |
| 188 to 190 °C | CN(C)CC(=O)N(C)c1ccc(N/C(=C2\C(=O)Nc3ccccc32)c2ccc(CN)cc2)cc1 [Example 430, (Z)-3-{1-[4-(N-dimethylaminomethylcarbonyl-N-methyl-amino)-phenylamino]-1-(4-aminomethyl-phenyl)-methylidene}-2-indolinone] |
| 123 to 125 °C | CC(=O)NCc1ccc(/C(Nc2ccc(N(C)C(=O)CN(C)C)cc2)=C2/C(=O)Nc3ccccc32)cc1 [Example 431, (Z)-3-{1-[4-(N-dimethylaminomethylcarbonyl-N-methyl-amino)-phenylamino]-1-(4-acetylaminomethyl-phenyl)-methylidene}-2-indolinone] |
| 266 to 270 °C | COC(=O)/C=C/c1ccc(/C(Nc2ccc(OC)cc2)=C2/C(=O)Nc3ccc([N+](=O)[O-])cc32)cc1 [Example 435, (Z)-3-{1-(4-methoxyphenylamino)-1-[(E)-4-(2-methoxycarbonylethenyl)-phenyl]-methylidene}-5-nitro-2-indolinone] |
| 260 to 265 °C | O=C1Nc2ccc([N+](=O)[O-])cc2/C1=C(/Nc1ccc(Br)cc1)c1ccc(Cn2ccnc2)cc1 [Example 438, (Z)-3-{1-[4-Bromophenylamino]-1-[4-(imidazol-1-ylmethyl)-phenyl]-methylidene}-5-nitro-2-indolinone] |
| 226 to 228 °C | O=C1Nc2ccc([N+](=O)[O-])cc2/C1=C(/Nc1ccc(CN2CCCCC2)cc1)c1ccc(Cn2ccnc2)cc1 [Example 439, (Z)-3-{1-[4-piperidinomethyl-phenylamino]-1-[4-(imidazol-1-yl-methyl)-phenyl]-methylidene}-5-nitro-2-indolinone] |
| 195 to 198 °C | CN(Cc1ccccc1)Cc1ccc(N/C(=C2\C(=O)Nc3ccc([N+](=O)[O-])cc32)c2ccc(Cn3ccnc3)cc2)cc1 [Example 440, (Z)-3-{1-[4-(N-benzyl-N-methyl-aminomethyl)-phenylamino]-1-[4-(imidazol-1-ylmethyl)-phenyl]-methylidene}-5-nitro-2-indolinone] |
| 230 to 233 °C | COc1ccc(/C(Nc2ccc(CN3CCCCC3)cc2)=C2/C(=O)Nc3ccc([N+](=O)[O-])cc32)cc1 [Example 441, (Z)-3-[1-(4-piperidinomethyl-phenylamino)-1-(4-methoxyphenyl)-methylidene]-5-nitro-2-indolinone] |
| 300 to 302 °C | O=C1Nc2ccc([N+](=O)[O-])cc2/C1=C(/Nc1ccc(CN2CCCCC2)cc1)c1ccc(C(F)(F)F)cc1 [Example 442, (Z)-3-[1-(4-piperidinomethyl-phenylamino)-1-(4-trifluoromethyl-phenyl)-methylidene]-5-nitro-2-indolinone] |
| 309 to 311 °C | O=C1Nc2ccc([N+](=O)[O-])cc2/C1=C(/Nc1ccc(CN2CCCCC2)cc1)c1ccc(Cl)cc1 [Example 443, (Z)-3-[1-(4-piperidinomethyl-phenylamino)-1-(4-chlorophenyl)-methylidene]-5-nitro-2-indolinone] |
| 178 to 183 °C | COC(=O)c1ccc(/C(Nc2ccc(CN3CCCCC3)cc2)=C2/C(=O)Nc3ccc([N+](=O)[O-])cc32)cc1 [Example 444, (Z)-3-[1-(4-piperidinomethyl-phenylamino)-1-(4-methoxycarbonyl-phenyl)-methylidene]-5-nitro-2-indolinone] |
| 230 °C | O=C1Nc2ccc([N+](=O)[O-])cc2/C1=C(/Nc1ccc(CN2CCCCC2)cc1)c1ccc(C(=O)O)cc1 [Example 445, (Z)-3-[1-(4-piperidinomethyl-phenylamino)-1-(4-carboxyphenyl)-methylidene]-5-nitro-2-indolinone] |
| 230 to 235 °C | COC(=O)CNC(=O)c1ccc(/C(Nc2ccc(CN3CCCCC3)cc2)=C2/C(=O)Nc3ccc([N+](=O)[O-])cc32)cc1 [Example 446, (Z)-3-[1-(4-piperidinomethyl-phenylamino)-1-(4-methoxycarbonylmethylaminocarbonyl-phenyl)-methylidene]-5-nitro-2-indolinone] |
| 130 °C | COC(=O)CCNC(=O)c1ccc(/C(Nc2ccc(CN3CCCCC3)cc2)=C2/C(=O)Nc3ccc([N+](=O)[O-])cc32)cc1 [Example 447, (Z)-3-[1-(4-piperidinomethyl-phenylamino)-1-(4-(2-methoxycarbonyl-ethylaminocarbonyl)-phenyl)-methylidene]-5-nitro-2-indolinone] |
| 170 °C | O=C1Nc2ccc(Br)cc2/C1=C(/Nc1ccc(CN2CCCCC2)cc1)c1ccccc1 [Example 450, (Z)-3-[1-(4-piperidinomethyl-phenylamino)-1-phenyl-methylidene]-5-bromo-2-indolinone] |
| 246 to 249 °C | COCC(=O)N(CCN(C)C)c1ccc(N/C(=C2\C(=O)Nc3ccccc32)c2ccccc2)cc1 [Example 451, (Z)-3-[1-(4-(N-(2-dimethylaminoethyl)-N-methoxymethylcarbonyl-amino)-phenylamino)-1-phenyl-methylidene]-2-indolinone] |
